# Measurements: patent US7026354B2 (priority 2001, dated 2006)
# Values joined by “and” are separate entries in the source; they are usually repeats but may differ in a detail not shown here. Equal entries are not always repeated. Where two headings read alike, the source gives them in different places.
# Key:
# Type in all cases: cell-based
# S. aureus (MN8) [1] = test system: S. aureus (MN8)
# S. aureus (MN8) [2] = test system: S. aureus (MN8); remark: listed apart in the source
# S. aureus FRI-1187 [3] = conditions: for ELISA: TSST-1 ng/OD unit / Reduction of Toxin %: Table 5, FRI-1187
# S. aureus FRI-1187 [4] = test system: S. aureus FRI-1187
# S. aureus strain RN 6390 = test system: S. aureus strain RN 6390
# S. aureus FRI-1169 [5] = test system: S. aureus FRI-1169
# S. aureus FRI-1169 [6] = test system: S. aureus FRI-1169; remark: listed apart in the source
# [7] = Table 10, Cetiol 2.5 mM, PABA 0%
# [8] = Table 10, Cetiol 10 mM, PABA 0%
# [9] = Table 1, 0.5% test compound, 24 h
# [10] = Table 1, 0.5% test compound, vs control
# [11] = Table 6, Cetiol 1414E 0, PEA 0.05%
# [12] = Table 6, Cetiol 1414E 0, PEA 0.15%
# [13] = Table 6, Cetiol 1414E 0, PEA 0.3%
# [14] = Table 6, Cetiol 1414E 0, PEA 0.5%
compound,measurement,setting,value
O=C(O)/C=C/c1ccccc1 [Trans-cinnamic acid],CFU/mL,S. aureus (MN8) [1],1.7E+09 CFU/mL
same,Optical Density,S. aureus (MN8) [1],0.549
same,ELISA: TSST-1 ng/OD unit,"S. aureus (MN8) [2]; Table 3, 0.5% test compound",436 ng/OD unit
O=C(O)c1cc(O)c(O)c(O)c1 [Gallic acid],CFU/mL,S. aureus (MN8) [1],1.2E+09 CFU/mL
same,Optical Density,S. aureus (MN8) [1],0.492
same,ELISA: TSST-1 ng/OD unit,"S. aureus (MN8) [2]; Table 3, 0.5% test compound",63 ng/OD unit
myreth-3 myristate [Cetiol 1414E],Log CFU/mL,S. aureus (MN8) [1],8.6 Log CFU/mL and 8.5 Log CFU/mL
same,OD,S. aureus (MN8) [1],0.881 and 0.976 and 0.637
same,ng TSST-1 per CFU,"S. aureus (MN8) [2]; Table 6, Cetiol 1414E 2.5 mM, PEA 0",239 ng per CFU
same,ng TSST-1 per CFU,"S. aureus (MN8) [2]; Table 6, Cetiol 1414E 5 mM, PEA 0",172 ng per CFU
same,ng TSST-1 per CFU,"S. aureus (MN8) [2]; Table 6, Cetiol 1414E 10 mM, PEA 0",61 ng per CFU
same,% Reduction,S. aureus (MN8) [2]; [7],31%
same,ng TSST-1/OD,S. aureus (MN8) [2]; [7],3367 ng/OD
same,% Reduction,"S. aureus (MN8) [2]; Table 10, Cetiol 5 mM, PABA 0%",51%
same,ng TSST-1/OD,"S. aureus (MN8) [2]; Table 10, Cetiol 5 mM, PABA 0%",2419 ng/OD
same,% Reduction,S. aureus (MN8) [2]; [8],53%
same,ng TSST-1/OD,S. aureus (MN8) [2]; [8],2286 ng/OD
Nc1ccc(C(=O)O)cc1 [p-aminobenzoic acid],CFU/mL,S. aureus (MN8) [1],1.1E+09 CFU/mL and 1.53E+09 CFU/mL and 1.85E+09 CFU/mL and 1.79E+09 CFU/mL and 1.15E+09 CFU/mL
same,OD,S. aureus (MN8) [1],0.546 and 0.558 and 0.599 and 0.589
same,Optical Density,S. aureus (MN8) [1],0.618
same,ELISA: TSST-1 ng/OD unit,"S. aureus (MN8) [2]; Table 2, 0.2% test compound",317 ng/OD unit
same,ng TSST-1/OD,"S. aureus (MN8) [2]; Table 10, Cetiol 0 mM, PABA 0.05%",5670 ng/OD
same,ng TSST-1/OD,"S. aureus (MN8) [2]; Table 10, Cetiol 0 mM, PABA 0.09%",3389 ng/OD
same,ng TSST-1/OD,"S. aureus (MN8) [2]; Table 10, Cetiol 0 mM, PABA 0.19%",1975 ng/OD
same,ng TSST-1/OD,"S. aureus (MN8) [2]; Table 10, Cetiol 0 mM, PABA 0.38%",1039 ng/OD
OCc1ccccc1 [Benzyl alcohol],CFU/mL,S. aureus (MN8) [1]; 24 h,1.8E+08 CFU/mL
same,Optical Density,"S. aureus (MN8) [1]; 24 h, 600 nm",0.792
same,ELISA: TSST-1 ng/OD unit,S. aureus (MN8) [2]; [9],131 ng/OD unit
same,Reduction of Toxin %,S. aureus (MN8) [2]; [10],91%
CC(=O)N[C@@H](Cc1ccc(O)cc1)C(=O)O [Acetyl tyrosine],CFU/mL,S. aureus (MN8) [1],1.7E+09 CFU/mL
same,Optical Density,S. aureus (MN8) [1],0.549
same,ELISA: TSST-1 ng/OD unit,"S. aureus (MN8) [2]; Table 3, 0.5% test compound",436 ng/OD unit
OCCc1ccccc1 [Phenylethyl alcohol],reduction of the amount of exotoxin production,S. aureus FRI-1187 [3],significantly reduced
same,ELISA: TSST-1 ng/OD unit,S. aureus FRI-1187 [3]; 0.25% test compound,1 ng/OD unit
same,Reduction of Toxin %,S. aureus FRI-1187 [3]; 0.25% test compound,98%
same,ELISA: TSST-1 ng/OD unit,S. aureus FRI-1187 [3]; 0.5% test compound,none detected
same,Reduction of Toxin %,S. aureus FRI-1187 [3]; 0.5% test compound,100%
same,Log CFU/mL,S. aureus (MN8) [1],8.6 Log CFU/mL and 8.7 Log CFU/mL and 8.5 Log CFU/mL
same,OD,S. aureus (MN8) [1],0.712 and 0.730 and 0.758 and 0.721
same,Optical Density,S. aureus (MN8) [1],0.542 and 0.551 and 0.476 and 0.554
same,Optical Density,S. aureus FRI-1187 [4],1.296 and 1.244
same,effect on the growth of S. aureus cells,S. aureus FRI-1187 [4],"minimal, if any, effect on the growth"
same,Hemolytic Endpoint 50% lysis,S. aureus strain RN 6390,None Detected
same,production of alpha toxin,S. aureus strain RN 6390,significantly reduced
same,% Toxin Inhibition,"S. aureus strain RN 6390; Table 7, 0.3% test compound",97%
same,Hemolytic Endpoint 50% lysis,"S. aureus strain RN 6390; Table 7, 0.3% test compound, reciprocal of the dilution giving 50% lysis",3
same,% Toxin Inhibition,"S. aureus strain RN 6390; Table 7, 0.4% test compound",100%
same,Reduction of Toxin %,S. aureus FRI-1169 [5],99% and 95%
same,% Reduction,S. aureus (MN8) [2],57% and 80% and 93% and 98%
same,ELISA: TSST-1 ng/OD unit,S. aureus (MN8) [2]; [9],60 ng/OD unit
same,Reduction of Toxin %,S. aureus (MN8) [2]; [10],96%
same,ELISA: TSST-1 ng/OD unit,"S. aureus (MN8) [2]; Table 2, 0.5% test compound",68 ng/OD unit
same,ELISA: TSST-1 ng/OD unit,"S. aureus (MN8) [2]; Table 3, 0.5% test compound",46 ng/OD unit
same,ELISA: TSST-1 ng/OD unit,"S. aureus (MN8) [2]; Table 4, 0.5% test compound",25 ng/OD unit
same,Reduction of Toxin %,S. aureus (MN8) [2]; [11],32%
same,ng TSST-1 per CFU,S. aureus (MN8) [2]; [11],266 ng per CFU
same,ng TSST-1 per mL,S. aureus (MN8) [2]; [11],826 ng per mL
same,Reduction of Toxin %,S. aureus (MN8) [2]; [12],67%
same,ng TSST-1 per CFU,S. aureus (MN8) [2]; [12],129 ng per CFU
same,ng TSST-1 per mL,S. aureus (MN8) [2]; [12],561 ng per mL
same,Reduction of Toxin %,S. aureus (MN8) [2]; [13],90%
same,ng TSST-1 per CFU,S. aureus (MN8) [2]; [13],39 ng per CFU
same,ng TSST-1 per mL,S. aureus (MN8) [2]; [13],201 ng per mL
same,Reduction of Toxin %,S. aureus (MN8) [2]; [14],93%
same,ng TSST-1 per CFU,S. aureus (MN8) [2]; [14],27 ng per CFU
same,ng TSST-1 per mL,S. aureus (MN8) [2]; [14],106 ng per mL
same,ng TSST-1/OD,"S. aureus (MN8) [2]; Table 9, Glucopon 0 mM, PEA 0.05%",323 ng/OD
same,ng TSST-1/OD,"S. aureus (MN8) [2]; Table 9, Glucopon 0 mM, PEA 0.15%",152 ng/OD
same,ng TSST-1/OD,"S. aureus (MN8) [2]; Table 9, Glucopon 0 mM, PEA 0.3%",54 ng/OD
same,ng TSST-1/OD,"S. aureus (MN8) [2]; Table 9, Glucopon 0 mM, PEA 0.50%",13 ng/OD
same,Optical Density,S. aureus FRI-1169 [6],1.263 and 1.208
same,effect on the growth of S. aureus cells,S. aureus FRI-1169 [6],"minimal, if any, effect on the growth"
"COC(=O)c1ccc(O)cc1 [p-hydroxybenzoic acid, methyl ester]",CFU/mL,S. aureus (MN8) [1],>1.5E+08 CFU/mL
same,Optical Density,S. aureus (MN8) [1],0.356
same,production of alpha toxin,S. aureus strain RN 6390,significantly reduced
same,% Toxin Inhibition,"S. aureus strain RN 6390; Table 8, 0.1% test compound",70%
same,Hemolytic Endpoint 50% lysis,"S. aureus strain RN 6390; Table 8, 0.1% test compound, reciprocal of the dilution giving 50% lysis",79
same,% Toxin Inhibition,"S. aureus strain RN 6390; Table 8, 0.2% test compound",94%
same,Hemolytic Endpoint 50% lysis,"S. aureus strain RN 6390; Table 8, 0.2% test compound, reciprocal of the dilution giving 50% lysis",16
same,ELISA: TSST-1 ng/OD unit,"S. aureus (MN8) [2]; Table 2, 0.2% test compound",506 ng/OD unit
CC(=O)Nc1ccc(O)cc1 [4-Acetamidophenol],CFU/mL,S. aureus (MN8) [1],2.4E+09 CFU/mL
same,Optical Density,S. aureus (MN8) [1],0.629
same,ELISA: TSST-1 ng/OD unit,"S. aureus (MN8) [2]; Table 4, 0.5% test compound",230 ng/OD unit
NC(=O)c1ccccc1O [2-hydroxybenzamide],CFU/mL,S. aureus (MN8) [1]; 24 h,9.0E+07 CFU/mL
same,Optical Density,"S. aureus (MN8) [1]; 24 h, 600 nm",0.549
same,ELISA: TSST-1 ng/OD unit,"S. aureus (MN8) [2]; Table 1, 1.0% test compound, 24 h",65 ng/OD unit
same,Reduction of Toxin %,"S. aureus (MN8) [2]; Table 1, 1.0% test compound, vs control",95%
O=C(O)c1ccccc1O [2-hydroxybenzoic acid],CFU/mL,S. aureus (MN8) [1],1.48E+09 CFU/mL
same,Optical Density,S. aureus (MN8) [1],0.682
same,ELISA: TSST-1 ng/OD unit,"S. aureus (MN8) [2]; Table 2, 0.2% test compound",193 ng/OD unit
